ChEMBL document CHEMBL3045544, “Synthesis, antimicrobial and antioxidant activities of some new indole derivatives containing pyridopyrimidine and pyrazolopyridine moieties” (Med Chem Res, 2013)

How the values were obtained:
Aspergillus flavus = assay: Antimicrobial activity against Aspergillus flavus MTCC 1973 assessed as diameter of growth inhibition zone at 500 ug/ml after 72 hr by cup-plate method; assay type: functional; conditions: MTCC 1973, 72 h, read-out: DIZ
Aspergillus oryzae = assay: Antimicrobial activity against Aspergillus oryzae MTCC 3567 assessed as diameter of growth inhibition zone at 500 ug/ml after 72 hr by cup-plate method; assay type: functional; conditions: MTCC 3567, 72 h, read-out: DIZ
Escherichia coli = assay: Antimicrobial activity against Escherichia coli MTCC 723 assessed as diameter of growth inhibition zone at 500 ug/ml after 24 hr by cup-plate method; assay type: functional; conditions: MTCC 723, 24 h, read-out: DIZ
Staphylococcus aureus = assay: Antimicrobial activity against Staphylococcus aureus ATCC 29513 assessed as diameter of growth inhibition zone at 500 ug/ml after 24 hr by cup-plate method; assay type: functional; conditions: ATCC 29513, 24 h, read-out: DIZ
[1] = tested on: Radical scavenging activity; assay: Antioxidant activity assessed as DPPH radical scavenging activity at 25 ug/ml by spectrophotometric analysis; assay type: functional
Aspergillus niger = assay: Antimicrobial activity against Aspergillus niger MTCC 281 assessed as diameter of growth inhibition zone at 500 ug/ml after 72 hr by cup-plate method; assay type: functional; conditions: MTCC 281, 72 h, read-out: DIZ
Pseudomonas aeruginosa = assay: Antimicrobial activity against Pseudomonas aeruginosa MTCC 1688 assessed as diameter of growth inhibition zone at 500 ug/ml after 24 hr by cup-plate method; assay type: functional; conditions: MTCC 1688, 24 h, read-out: DIZ
Klebsiella pneumoniae = assay: Antimicrobial activity against Klebsiella pneumoniae NCTC 13368 assessed as diameter of growth inhibition zone at 500 ug/ml after 24 hr by cup-plate method; assay type: functional; conditions: NCTC 13368, 24 h, read-out: DIZ
Aspergillus terreus = assay: Antimicrobial activity against Aspergillus terreus MTCC 1782 assessed as diameter of growth inhibition zone at 500 ug/ml after 72 hr by cup-plate method; assay type: functional; conditions: MTCC 1782, 72 h, read-out: DIZ
[2] = tested on: Radical scavenging activity; assay: Antioxidant activity assessed as DPPH radical scavenging activity at 75 ug/ml by spectrophotometric analysis; assay type: functional
[3] = tested on: Radical scavenging activity; assay: Antioxidant activity assessed as DPPH radical scavenging activity at 100 ug/ml by spectrophotometric analysis; assay type: functional
[4] = Antioxidant activity assessed as ferric ion reducing activity after 20 min by FRAP assay; assay type: functional
[5] = Metal chelating activity of the compound assessed as inhibition of ferrozine Fe2+ complex formation at 25 to 100 ug/ml after 10 min by spectrophotometric analysis; assay type: physicochemical

Question: For `Cc1ccc(-c2cc(-c3c(-c4ccccc4)[nH]c4ccc(Cl)cc34)c3c(=O)[nH]cnc3n2)cc1`, which zone of inhibition at 500 µg/mL (Aspergillus flavus) is on record?
Answer: The zone of inhibition at 500 µg/mL was 8 mm.

Question: What about the zone of inhibition at 500 µg/mL (Aspergillus oryzae) of the same molecule?
Answer: Its zone of inhibition at 500 µg/mL is 10 mm.

Question: And the zone of inhibition at 500 µg/mL (Escherichia coli)?
Answer: Its zone of inhibition at 500 µg/mL is 10 mm.

Question: And the zone of inhibition at 500 µg/mL (Staphylococcus aureus)?
Answer: The zone of inhibition at 500 µg/mL was 8 mm.

Question: And the Activity [1]?
Answer: The Activity was 61.5%.

Question: What about the zone of inhibition at 500 µg/mL (Aspergillus niger) of the same molecule?
Answer: The zone of inhibition at 500 µg/mL was 11 mm.

Question: What about the zone of inhibition at 500 µg/mL (Pseudomonas aeruginosa) of the same molecule?
Answer: Its zone of inhibition at 500 µg/mL is 5 mm.

Question: And the zone of inhibition at 500 µg/mL (Klebsiella pneumoniae)?
Answer: The zone of inhibition at 500 µg/mL was 11 mm.

Question: And the zone of inhibition at 500 µg/mL (Aspergillus terreus)?
Answer: Its zone of inhibition at 500 µg/mL is 9 mm.

Question: What does the source list for `Cc1ccc(-c2cc(-c3c(-c4ccccc4)[nH]c4ccc(C)cc34)c3c(=O)[nH]cnc3n2)cc1`?
Answer: zone of inhibition at 500 µg/mL (Aspergillus flavus): 5 mm; zone of inhibition at 500 µg/mL (Aspergillus oryzae): 8 mm; zone of inhibition at 500 µg/mL (Escherichia coli): 5 mm; zone of inhibition at 500 µg/mL (Staphylococcus aureus): 8 mm; Activity [1]: 74.4%; zone of inhibition at 500 µg/mL (Aspergillus niger): 10 mm; zone of inhibition at 500 µg/mL (Pseudomonas aeruginosa): 10 mm; zone of inhibition at 500 µg/mL (Klebsiella pneumoniae): 12 mm; zone of inhibition at 500 µg/mL (Aspergillus terreus): 10 mm

Question: With `O=c1[nH]cnc2nc(-c3ccccc3)cc(-c3c(-c4ccccc4)[nH]c4ccc(Cl)cc34)c12` as the molecule, how does the Activity [2] read?
Answer: The Activity was 74.1%.

Question: What about the zone of inhibition at 500 µg/mL (Aspergillus flavus) of the same molecule?
Answer: The zone of inhibition at 500 µg/mL was 9 mm.

Question: What about the zone of inhibition at 500 µg/mL (Aspergillus oryzae) of the same molecule?
Answer: The zone of inhibition at 500 µg/mL was 12 mm.

Question: What about the zone of inhibition at 500 µg/mL (Escherichia coli) of the same molecule?
Answer: Its zone of inhibition at 500 µg/mL is 12 mm.

Question: What about the zone of inhibition at 500 µg/mL (Staphylococcus aureus) of the same molecule?
Answer: Its zone of inhibition at 500 µg/mL is 5 mm.

Question: And the Activity [3]?
Answer: The Activity was 78.8%.

Question: And the zone of inhibition at 500 µg/mL (Aspergillus niger)?
Answer: Its zone of inhibition at 500 µg/mL is 12 mm.

Question: And the zone of inhibition at 500 µg/mL (Pseudomonas aeruginosa)?
Answer: Its zone of inhibition at 500 µg/mL is 8 mm.

Question: And the zone of inhibition at 500 µg/mL (Klebsiella pneumoniae)?
Answer: Its zone of inhibition at 500 µg/mL is 14 mm.

Question: What about the zone of inhibition at 500 µg/mL (Aspergillus terreus) of the same molecule?
Answer: Its zone of inhibition at 500 µg/mL is 10 mm.

Question: Which Activity [2] does the source give for `Cc1ccc2[nH]c(-c3ccccc3)c(-c3cc(-c4ccccc4)nc4[nH]nc(N)c34)c2c1` here?
Answer: Its Activity is 75.2%.

Question: And the zone of inhibition at 500 µg/mL (Aspergillus flavus)?
Answer: The zone of inhibition at 500 µg/mL was 6 mm.

Question: What about the zone of inhibition at 500 µg/mL (Aspergillus oryzae) of the same molecule?
Answer: Its zone of inhibition at 500 µg/mL is 14 mm.

Question: And the Activity [4]?
Answer: The Activity was “Dose-dependent effect”.

Question: And the zone of inhibition at 500 µg/mL (Escherichia coli)?
Answer: Its zone of inhibition at 500 µg/mL is 8 mm.

Question: And the zone of inhibition at 500 µg/mL (Staphylococcus aureus)?
Answer: Its zone of inhibition at 500 µg/mL is 10 mm.

Question: And the Activity [3]?
Answer: Its Activity is 68.2%.

Question: And the zone of inhibition at 500 µg/mL (Aspergillus niger)?
Answer: The zone of inhibition at 500 µg/mL was 2 mm.

Question: And the zone of inhibition at 500 µg/mL (Pseudomonas aeruginosa)?
Answer: The zone of inhibition at 500 µg/mL was 5 mm.

Question: What about the zone of inhibition at 500 µg/mL (Klebsiella pneumoniae) of the same molecule?
Answer: Its zone of inhibition at 500 µg/mL is 9 mm.

Question: And the zone of inhibition at 500 µg/mL (Aspergillus terreus)?
Answer: Its zone of inhibition at 500 µg/mL is 5 mm.

Question: For `Cc1ccc(-c2cc(-c3c(-c4ccccc4)[nH]c4ccc(Cl)cc34)c3c(N)n[nH]c3n2)cc1`, which zone of inhibition at 500 µg/mL (Aspergillus flavus) is on record?
Answer: Its zone of inhibition at 500 µg/mL is 5 mm.

Question: And the zone of inhibition at 500 µg/mL (Aspergillus oryzae)?
Answer: The zone of inhibition at 500 µg/mL was 10 mm.

Question: And the Activity [4]?
Answer: Its Activity is “Dose-dependent effect”.

Question: And the zone of inhibition at 500 µg/mL (Escherichia coli)?
Answer: Its zone of inhibition at 500 µg/mL is 6 mm.

Question: And the zone of inhibition at 500 µg/mL (Staphylococcus aureus)?
Answer: Its zone of inhibition at 500 µg/mL is 10 mm.

Question: What about the zone of inhibition at 500 µg/mL (Aspergillus niger) of the same molecule?
Answer: Its zone of inhibition at 500 µg/mL is 8 mm.

Question: What about the zone of inhibition at 500 µg/mL (Pseudomonas aeruginosa) of the same molecule?
Answer: The zone of inhibition at 500 µg/mL was 9 mm.

Question: And the “inhibition (INH)” value [5]?
Answer: Its value is “Active”.

Question: And the zone of inhibition at 500 µg/mL (Klebsiella pneumoniae)?
Answer: The zone of inhibition at 500 µg/mL was 9 mm.

Question: What about the zone of inhibition at 500 µg/mL (Aspergillus terreus) of the same molecule?
Answer: The zone of inhibition at 500 µg/mL was 11 mm.

Question: With `Nc1ncnc2nc(-c3ccc(Cl)cc3)cc(-c3c(-c4ccccc4)[nH]c4ccccc34)c12` as the molecule, how does the zone of inhibition at 500 µg/mL (Aspergillus flavus) read?
Answer: The zone of inhibition at 500 µg/mL was 8 mm.

Question: What about the zone of inhibition at 500 µg/mL (Aspergillus oryzae) of the same molecule?
Answer: Its zone of inhibition at 500 µg/mL is 2 mm.

Question: And the zone of inhibition at 500 µg/mL (Escherichia coli)?
Answer: Its zone of inhibition at 500 µg/mL is 8 mm.

Question: And the zone of inhibition at 500 µg/mL (Staphylococcus aureus)?
Answer: The zone of inhibition at 500 µg/mL was 10 mm.

Question: And the Activity [1]?
Answer: The Activity was 66.8%.

Question: What about the zone of inhibition at 500 µg/mL (Aspergillus niger) of the same molecule?
Answer: Its zone of inhibition at 500 µg/mL is 10 mm.

Question: And the zone of inhibition at 500 µg/mL (Pseudomonas aeruginosa)?
Answer: Its zone of inhibition at 500 µg/mL is 2 mm.

Question: And the zone of inhibition at 500 µg/mL (Klebsiella pneumoniae)?
Answer: The zone of inhibition at 500 µg/mL was 5 mm.

Question: And the zone of inhibition at 500 µg/mL (Aspergillus terreus)?
Answer: The zone of inhibition at 500 µg/mL was 10 mm.
